Experimental data as given in patent US20230167070A1, “MODULATORS OF TREX1” (Constellation Pharmaceuticals, Inc., priority 2020, published 2023).

Experiments:
full length human TREX1 = molecular target: T1, full length human TREX1 (Homo sapiens, UniProt Q9NSU2); assay: TREX1 Biochemical Assay (fluorescence, dsDNA substrate degradation); settings: 150 pM TREX1, 60 nM dsDNA substrate, 25 minutes at room temperature
T1 construct: N-terminally His-Tev tagged full length human TREX1; made in house; host or cells: E. coli
T1 sequence (Q9NSU2 1-314): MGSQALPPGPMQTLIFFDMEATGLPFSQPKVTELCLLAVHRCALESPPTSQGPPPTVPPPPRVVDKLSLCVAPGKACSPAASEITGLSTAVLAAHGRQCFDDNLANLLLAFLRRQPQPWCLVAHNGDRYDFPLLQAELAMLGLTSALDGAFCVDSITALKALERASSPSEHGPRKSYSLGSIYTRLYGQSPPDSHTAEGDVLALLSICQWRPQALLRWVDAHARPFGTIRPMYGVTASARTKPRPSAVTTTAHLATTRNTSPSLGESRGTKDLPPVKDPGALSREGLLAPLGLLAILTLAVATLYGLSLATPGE
Description: Degradation of the dsDNA liberates free fluorophore to produce a fluorescent signal. Specifically, 7.5 μL of N-terminally His-Tev tagged full length human TREX1 (expressed in E. coli and purified in house) in reaction buffer (50 mM Tris (pH 7.4), 150 mM NaCl, 2 mM DTT, 0.1 mg/mL BSA, 0.01% (v/v) Tween-20 and 100 mM MgCl2) was added to a 384-well Black ProxiPlate Plus (Perkin Elmer) which already contained compound (150 nL) at varying concentrations as a 10 point dose-response in DMSO. To this was added 7.5 μL of dsDNA substrate (Strand A: 5′ TEX615/GCT AGG CAG 3′; Strand B: 5′ CTG CCT AGC/IAbRQSp (Integrated DNA Technologies)) in reaction buffer. Final concentrations were 150 pM TREX1, 60 nM dsDNA substrate in reaction buffer with 1.0% DMSO (v/v). After 25 minutes at room temperature, reactions were quenched by the addition of 5 μL of stop buffer (same as reaction buffer plus 200 mM EDTA). Final concentrations in the quenched reaction were 112.5 pM TREX1, 45 nM DNA and 50 mM EDTA in a volume of 20 μL. After a 5-minute incubation at room temperature, plates were read in a laser sourced Envision (Perkin-Elmer), measuring fluorescence at 615 nm following excitation w/570 nm light. IC50 values were calculated by comparing the measured fluorescence at 615 nm ratio relative to control wells pre-quenched w/stop buffer (100% inhibition) and no inhibitor (0% inhibition) controls as using non-linear least square four parameter fits and either Genedata or GraphPad Prism (GraphPad Software, Inc.).

[1] = molecular target: T2, human TREX2 (residues M44-A279) (Homo sapiens, UniProt Q9BQ50); assay: TREX2 Biochemical Assay (fluorescence, dsDNA substrate degradation); settings: 2.5 nM TREX2, 60 nM dsDNA substrate, 25 minutes at room temperature
T2 construct: human TREX2 (residues M44-A279, expressed in E. coli); made in house; host or cells: E. coli
T2 sequence (Q9BQ50 44-279 isoform Q9BQ50-1): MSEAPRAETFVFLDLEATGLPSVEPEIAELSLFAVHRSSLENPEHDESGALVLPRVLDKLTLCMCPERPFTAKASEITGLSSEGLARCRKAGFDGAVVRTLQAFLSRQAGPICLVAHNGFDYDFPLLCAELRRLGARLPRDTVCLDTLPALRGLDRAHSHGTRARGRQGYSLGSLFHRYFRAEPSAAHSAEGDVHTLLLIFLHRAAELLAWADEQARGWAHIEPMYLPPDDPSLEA
Description: Degradation of the dsDNA liberates free fluorophore to produce a fluorescent signal. Specifically, 7.5 μL of N-terminally His-Tev tagged human TREX2 (residues M44-A279, expressed in E. coli and purified in house) in reaction buffer (50 mM Tris (pH 7.4), 150 mM NaCl, 2 mM DTT, 0.1 mg/mL BSA, 0.01% (v/v) Tween-20 and 100 mM MgCl2) was added to a 384-well Black ProxiPlate Plus (Perkin Elmer) which already contained compound (150 nL) at varying concentrations as a 10 point dose-response in DMSO. To this was added 7.5 μL of dsDNA substrate (Strand A: 5′ TEX615/GCT AGG CAG 3′; Strand B: 5′ CTG CCT AGC/IAbRQSp (IDT)) in reaction buffer. Final concentrations were 2.5 nM TREX2, 60 nM dsDNA substrate in reaction buffer with 1.0% DMSO (v/v). After 25 minutes at room temperature, reactions were quenched by the addition of 5 μL of stop buffer (same as reaction buffer plus 200 mM EDTA). Final concentrations in the quenched reaction mixture were […] TREX2, 45 nM DNA and 50 mM EDTA in a volume of 20 μL. After a 5-minute incubation at room temperature, plates were read in a laser sourced Envision (Perkin-Elmer), measuring fluorescence at 615 nm following excitation w/570 nm light. IC50 values were calculated by comparing the measured fluorescence at 615 nm ratio relative to control wells pre-quenched w/stop buffer (100% inhibition) and no inhibitor (0% inhibition) controls as using non-linear least square four parameter fits and either Genedata or GraphPad Prism (GraphPad Software, Inc.).

With `CN(c1nc(C(=O)Nc2ccc(F)cc2)c(O)c(=O)n1C)[C@H](c1ccccc1)c1ccccc1Cl` (stereo in doubt) [Example 29, 2-(((2-chlorophenyl)(phenyl)methyl)(methyl)amino)-N-(4-fluorophenyl)-5-hydroxy-1-methyl-6-oxo-1,6-dihydropyrimidine-4-carboxamide] the IC50 (full length human TREX1) was 100 to 1000 nM and the IC50 [1] was < 1 µM.

`CN(c1nc(C(=O)NCC(F)(F)F)c(O)c(=O)n1C)C(c1ccccc1)c1ccccc1` [Example 1, 2-(benzhydryl(methyl)amino)-5-hydroxy-1-methyl-6-oxo-N-(2,2,2-trifluoroethyl)-1,6-dihydropyrimidine-4-carboxamide] gave an IC50 (full length human TREX1) of 1000 to 10000 nM and an IC50 [1] of 10 to 100 µM.

`CN(c1nc(C(=O)NC2CC(F)(F)C2)c(O)c(=O)n1C)C(c1ccccc1)c1ccccc1` [Example 2, 2-(benzhydryl(methyl)amino)-N-(3,3-difluorocyclobutyl)-5-hydroxy-1-methyl-6-oxo-1,6-dihydropyrimidine-4-carboxamide] showed an IC50 (full length human TREX1) of 1000 to 10000 nM and an IC50 [1] of 10 to 100 µM.

With `CN(c1nc(C(=O)N[C@H]2CCOC2)c(O)c(=O)n1C)C(c1ccccc1)c1ccccc1` [Example 3, (S)-2-(benzhydryl(methyl)amino)-5-hydroxy-1-methyl-6-oxo-N-(tetrahydrofuran-3-yl)-1,6-dihydropyrimidine-4-carboxamide] the IC50 (full length human TREX1) was > 10000 nM and the IC50 [1] was 10 to 100 µM.

With `CN(c1nc(C(=O)N[C@@H]2CCOC2)c(O)c(=O)n1C)C(c1ccccc1)c1ccccc1` [Example 4, (R)-2-(benzhydryl(methyl)amino)-5-hydroxy-1-methyl-6-oxo-N-(tetrahydrofuran-3-yl)-1,6-dihydropyrimidine-4-carboxamide] the IC50 (full length human TREX1) was > 10000 nM and the IC50 [1] was 10 to 100 µM.

Compound `C=C(C)CNC(=O)c1nc(N(C)C(c2ccccc2)c2ccccc2)n(C)c(=O)c1O` [Example 5, 2-(benzhydryl(methyl)amino)-5-hydroxy-1-methyl-N-(2-methylallyl)-6-oxo-1,6-dihydropyrimidine-4-carboxamide] has an IC50 (full length human TREX1) of 1000 to 10000 nM and an IC50 [1] of 10 to 100 µM.

In the case of `CN(c1nc(C(=O)NC2CC=CC2)c(O)c(=O)n1C)C(c1ccccc1)c1ccccc1` [Example 6, 2-(benzhydryl(methyl)amino)-N-(cyclopent-3-en-1-yl)-5-hydroxy-1-methyl-6-oxo-1,6-dihydropyrimidine-4-carboxamide], the IC50 (full length human TREX1) is reported as 1000 to 10000 nM and the IC50 [1] is reported as 10 to 100 µM.

Compound `CN(c1nc(C(=O)NC2CCC2)c(O)c(=O)n1C)C(c1ccccc1)c1ccccc1` [Example 7, 2-(benzhydryl(methyl)amino)-N-cyclobutyl-5-hydroxy-1-methyl-6-oxo-1,6-dihydropyrimidine-4-carboxamide] has an IC50 (full length human TREX1) of 1000 to 10000 nM and an IC50 [1] of 10 to 100 µM.

With `C=CCNC(=O)c1nc(N(C)C(c2ccccc2)c2ccccc2)n(C)c(=O)c1O` [Example 8, N-allyl-2-(benzhydryl(methyl)amino)-5-hydroxy-1-methyl-6-oxo-1,6-dihydropyrimidine-4-carboxamide] the IC50 (full length human TREX1) was 1000 to 10000 nM and the IC50 [1] was 1 to 10 µM.

In the case of `CN(c1nc(C(=O)NC2COC2)c(O)c(=O)n1C)C(c1ccccc1)c1ccccc1` [Example 9, 2-(benzhydryl(methyl)amino)-5-hydroxy-1-methyl-N-(oxetan-3-yl)-6-oxo-1,6-dihydropyrimidine-4-carboxamide], the IC50 (full length human TREX1) is reported as > 10000 nM and the IC50 [1] is reported as 10 to 100 µM.

Compound `CCNC(=O)c1nc(N(C)C(c2ccccc2)c2ccccc2)n(C)c(=O)c1O` [Example 10, 2-(benzhydryl(methyl)amino)-N-ethyl-5-hydroxy-1-methyl-6-oxo-1,6-dihydropyrimidine-4-carboxamide] has an IC50 (full length human TREX1) of 1000 to 10000 nM and an IC50 [1] of 10 to 100 µM.

With `COCCNC(=O)c1nc(N(C)C(c2ccccc2)c2ccccc2)n(C)c(=O)c1O` [Example 11, 2-(benzhydryl(methyl)amino)-5-hydroxy-N-(2-methoxyethyl)-1-methyl-6-oxo-1,6-dihydropyrimidine-4-carboxamide] the IC50 (full length human TREX1) was > 10000 nM and the IC50 [1] was 10 to 100 µM.

`CNC(=O)c1nc(N(C)C(c2ccccc2)c2ccccc2)n(C)c(=O)c1O` [Example 12, 2-(benzhydryl(methyl)amino)-5-hydroxy-N,1-dimethyl-6-oxo-1,6-dihydropyrimidine-4-carboxamide] was tested, and the IC50 (full length human TREX1) was > 10000 nM and the IC50 [1] was 10 to 100 µM.

`CN(c1nc(C(=O)NCCC(F)(F)F)c(O)c(=O)n1C)C(c1ccccc1)c1ccccc1` [Example 13, 2-(benzhydryl(methyl)amino)-5-hydroxy-1-methyl-6-oxo-N-(3,3,3-trifluoropropyl)-1,6-dihydropyrimidine-4-carboxamide] showed an IC50 (full length human TREX1) of 100 to 1000 nM and an IC50 [1] of 10 to 100 µM.

`CN(c1nc(C(=O)NCC2CC2)c(O)c(=O)n1C)C(c1ccccc1)c1ccccc1` [Example 14, 2-(benzhydryl(methyl)amino)-N-(cyclopropylmethyl)-5-hydroxy-1-methyl-6-oxo-1,6-dihydropyrimidine-4-carboxamide] showed an IC50 (full length human TREX1) of 100 to 1000 nM and an IC50 [1] of 1 to 10 µM.

For `CN(c1nc(C(=O)Nc2ccccc2)c(O)c(=O)n1C)C(c1ccccc1)c1ccccc1` [Example 15, 2-(benzhydryl(methyl)amino)-5-hydroxy-1-methyl-6-oxo-N-phenyl-1,6-dihydropyrimidine-4-carboxamide], the IC50 (full length human TREX1) was < 100 nM and the IC50 [1] was < 1 µM.

`CN(c1nc(C(=O)Nc2cccc(F)c2)c(O)c(=O)n1C)C(c1ccccc1)c1ccccc1` [Example 16, 2-(benzhydryl(methyl)amino)-N-(3-fluorophenyl)-5-hydroxy-1-methyl-6-oxo-1,6-dihydropyrimidine-4-carboxamide] was tested, and the IC50 (full length human TREX1) was < 100 nM and the IC50 [1] was < 1 µM.

With `CN(c1nc(C(=O)Nc2ccccc2F)c(O)c(=O)n1C)C(c1ccccc1)c1ccccc1` [Example 17, 2-(benzhydryl(methyl)amino)-N-(2-fluorophenyl)-5-hydroxy-1-methyl-6-oxo-1,6-dihydropyrimidine-4-carboxamide] the IC50 (full length human TREX1) was < 100 nM and the IC50 [1] was < 1 µM.

In the case of `CN(c1nc(C(=O)Nc2ccc(F)cc2)c(O)c(=O)n1C)C(c1ccccc1)c1ccccc1` [Example 18, 2-(benzhydryl(methyl)amino)-N-(4-fluorophenyl)-5-hydroxy-1-methyl-6-oxo-1,6-dihydropyrimidine-4-carboxamide], the IC50 (full length human TREX1) is reported as 100 to 1000 nM and the IC50 [1] is reported as < 1 µM.

Work on `CN(c1nc(C(=O)Nc2c(F)cccc2F)c(O)c(=O)n1C)C(c1ccccc1)c1ccccc1` [Example 19, 2-(benzhydryl(methyl)amino)-N-(2,6-difluorophenyl)-5-hydroxy-1-methyl-6-oxo-1,6-dihydropyrimidine-4-carboxamide] yielded an IC50 (full length human TREX1) of 1000 to 10000 nM and an IC50 [1] of 10 to 100 µM.

For `CN(c1nc(C(=O)Nc2ccc(F)c(F)c2)c(O)c(=O)n1C)C(c1ccccc1)c1ccccc1` [Example 20, 2-(benzhydryl(methyl)amino)-N-(3,4-difluorophenyl)-5-hydroxy-1-methyl-6-oxo-1,6-dihydropyrimidine-4-carboxamide], the IC50 (full length human TREX1) was 100 to 1000 nM and the IC50 [1] was < 1 µM.
